From article PMC7026418, “The kinase polypharmacology landscape of clinical PARP inhibitors” (Scientific Reports, 2020)
Read-outs that look alike come from different tables or passages of the source. Each block holds one compound with its values, some of them ahead of it.

What was measured:
Test in all cases: biochemical
Set-up in all cases: DiscoveRx KINOMEscan active site-directed competition binding; percent of control kinase bound to immobilised ligand
[1] = target: T1, JNK1 (Homo sapiens, UniProt P45983)
T1 construct: gene MAPK8

[2] = target: T2, IRAK4 (Homo sapiens, UniProt Q9NWZ3)
T2 sequence (Q9NWZ3 1-460): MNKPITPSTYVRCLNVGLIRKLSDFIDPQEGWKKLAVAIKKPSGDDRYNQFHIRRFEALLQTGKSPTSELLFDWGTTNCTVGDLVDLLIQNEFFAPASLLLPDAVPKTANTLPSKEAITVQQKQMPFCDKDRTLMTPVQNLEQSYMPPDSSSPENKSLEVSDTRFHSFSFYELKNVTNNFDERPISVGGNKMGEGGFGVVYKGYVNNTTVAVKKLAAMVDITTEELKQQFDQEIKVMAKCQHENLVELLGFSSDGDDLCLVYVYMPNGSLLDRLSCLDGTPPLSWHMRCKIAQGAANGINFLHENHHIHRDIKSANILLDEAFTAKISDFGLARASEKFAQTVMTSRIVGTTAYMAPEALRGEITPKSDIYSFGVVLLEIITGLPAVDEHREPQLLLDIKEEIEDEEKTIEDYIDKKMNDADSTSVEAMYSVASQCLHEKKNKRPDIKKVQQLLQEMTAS

[3] = target: T3, RSK1(Kin.Dom.1-N-terminal) (Homo sapiens, UniProt Q15418)
T3 construct: gene RPS6KA1; Kin.Dom.1-N-terminal

[4] = target: T4, SNARK (Homo sapiens, UniProt Q9H093)
T4 construct: gene NUAK2
T4 sequence (Q9H093 1-628): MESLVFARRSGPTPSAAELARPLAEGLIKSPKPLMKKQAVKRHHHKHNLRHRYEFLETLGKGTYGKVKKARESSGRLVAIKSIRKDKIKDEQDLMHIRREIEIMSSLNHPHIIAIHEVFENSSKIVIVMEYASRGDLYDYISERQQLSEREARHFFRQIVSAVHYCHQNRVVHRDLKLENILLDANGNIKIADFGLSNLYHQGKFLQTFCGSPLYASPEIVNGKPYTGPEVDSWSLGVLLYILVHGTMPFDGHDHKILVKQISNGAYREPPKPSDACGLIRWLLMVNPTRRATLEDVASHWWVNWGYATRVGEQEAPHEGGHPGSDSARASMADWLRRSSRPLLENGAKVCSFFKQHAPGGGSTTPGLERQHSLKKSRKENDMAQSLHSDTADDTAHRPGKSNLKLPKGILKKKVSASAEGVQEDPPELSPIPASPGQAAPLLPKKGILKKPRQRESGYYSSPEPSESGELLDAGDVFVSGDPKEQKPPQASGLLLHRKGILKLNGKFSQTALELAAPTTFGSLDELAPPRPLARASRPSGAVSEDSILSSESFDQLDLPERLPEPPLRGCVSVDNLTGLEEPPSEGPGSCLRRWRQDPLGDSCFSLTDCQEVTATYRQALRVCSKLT

[5] = target: T5, ABL1(H396P)-phosphorylated (Homo sapiens, UniProt P00519, H396P)
T5 construct: phosphorylated

[6] = target: CSNK2A2 (Homo sapiens, UniProt P19784)
[7] = target: T6, NEK2 (Homo sapiens, UniProt P51955)
T6 sequence (P51955 1-445): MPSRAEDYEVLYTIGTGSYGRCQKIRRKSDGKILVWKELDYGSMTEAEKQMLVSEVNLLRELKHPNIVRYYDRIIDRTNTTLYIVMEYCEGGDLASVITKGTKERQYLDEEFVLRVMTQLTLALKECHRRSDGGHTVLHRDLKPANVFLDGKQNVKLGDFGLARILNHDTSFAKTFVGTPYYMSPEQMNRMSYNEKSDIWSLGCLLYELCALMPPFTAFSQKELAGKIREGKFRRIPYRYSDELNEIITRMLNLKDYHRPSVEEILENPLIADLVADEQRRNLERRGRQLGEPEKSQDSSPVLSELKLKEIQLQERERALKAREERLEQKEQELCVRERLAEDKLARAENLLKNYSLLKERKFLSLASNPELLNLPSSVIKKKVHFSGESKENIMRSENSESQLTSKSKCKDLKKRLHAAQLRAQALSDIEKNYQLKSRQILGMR

[8] = read-out: Niraparib (MK-4827) / %Ctrl @ 10000nM
[9] = read-out: Olaparib / %Ctrl @ 10000nM
[10] = read-out: Rucaparib / %Ctrl @ 10000nM, binding competition, % of control
[11] = read-out: Talazoparib (BMN 673) / %Ctrl @ 10000nM

T3 sequence (Q15418 whole entry): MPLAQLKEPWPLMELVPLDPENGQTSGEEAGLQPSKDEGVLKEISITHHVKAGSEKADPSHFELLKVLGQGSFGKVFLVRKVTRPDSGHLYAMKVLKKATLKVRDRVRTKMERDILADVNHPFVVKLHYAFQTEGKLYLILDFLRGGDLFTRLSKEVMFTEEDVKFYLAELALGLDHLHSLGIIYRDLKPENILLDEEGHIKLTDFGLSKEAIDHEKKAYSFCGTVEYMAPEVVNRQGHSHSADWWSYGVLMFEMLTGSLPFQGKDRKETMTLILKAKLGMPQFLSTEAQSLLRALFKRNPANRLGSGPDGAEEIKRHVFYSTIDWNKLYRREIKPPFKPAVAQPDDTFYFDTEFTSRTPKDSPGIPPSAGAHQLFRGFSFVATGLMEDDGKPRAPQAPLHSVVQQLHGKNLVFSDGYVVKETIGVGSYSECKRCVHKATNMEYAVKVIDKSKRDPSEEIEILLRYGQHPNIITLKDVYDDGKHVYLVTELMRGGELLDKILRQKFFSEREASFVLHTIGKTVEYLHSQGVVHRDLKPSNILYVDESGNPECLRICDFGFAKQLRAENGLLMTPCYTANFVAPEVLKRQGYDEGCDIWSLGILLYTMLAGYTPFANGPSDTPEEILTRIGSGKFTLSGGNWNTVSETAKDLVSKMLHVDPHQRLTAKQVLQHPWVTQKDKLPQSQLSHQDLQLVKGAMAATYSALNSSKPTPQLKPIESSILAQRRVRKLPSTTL
Chain of CSNK2A2 (P19784 whole entry): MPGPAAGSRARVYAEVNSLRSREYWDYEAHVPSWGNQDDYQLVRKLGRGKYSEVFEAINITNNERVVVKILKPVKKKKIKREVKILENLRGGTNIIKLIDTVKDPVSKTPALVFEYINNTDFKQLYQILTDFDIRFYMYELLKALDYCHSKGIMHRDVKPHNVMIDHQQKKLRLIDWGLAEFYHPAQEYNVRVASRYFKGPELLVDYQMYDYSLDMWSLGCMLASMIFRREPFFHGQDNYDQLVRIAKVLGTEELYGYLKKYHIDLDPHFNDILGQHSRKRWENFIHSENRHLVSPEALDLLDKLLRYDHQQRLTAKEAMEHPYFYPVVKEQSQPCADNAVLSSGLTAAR
T1 sequence (P45983 whole entry): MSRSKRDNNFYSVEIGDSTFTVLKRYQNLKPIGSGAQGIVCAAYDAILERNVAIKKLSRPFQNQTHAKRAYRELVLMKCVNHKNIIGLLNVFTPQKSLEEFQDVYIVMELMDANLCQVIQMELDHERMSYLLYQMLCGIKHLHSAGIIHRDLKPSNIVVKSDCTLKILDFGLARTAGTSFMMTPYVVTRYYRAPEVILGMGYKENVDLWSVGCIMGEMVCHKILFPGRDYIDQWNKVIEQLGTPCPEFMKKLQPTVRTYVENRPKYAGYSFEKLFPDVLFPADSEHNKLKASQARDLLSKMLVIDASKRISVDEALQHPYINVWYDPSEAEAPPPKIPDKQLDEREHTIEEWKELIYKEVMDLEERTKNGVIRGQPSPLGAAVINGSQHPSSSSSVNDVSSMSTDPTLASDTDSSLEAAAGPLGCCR

SMILES: NC(=O)c1cccc2cn(-c3ccc([C@@H]4CCCNC4)cc3)nc12 [Niraparib]
percent of control binding at 10 µM [1, 8]: 85%
percent of control binding at 10 µM [2, 8]: 99%
percent of control binding at 10 µM [3, 8]: 98%
percent of control binding at 10 µM [4, 8]: 98%
percent of control binding at 10 µM [5, 8]: 58%
percent of control binding at 10 µM [6, 8]: 1.2%
percent of control binding at 10 µM [7, 8]: 98%

percent of control binding at 10 µM [1, 9]: 98%
percent of control binding at 10 µM [2, 9]: 88%
percent of control binding at 10 µM [3, 9]: 94%
percent of control binding at 10 µM [4, 9]: 72%
percent of control binding at 10 µM [5, 9]: 83%
percent of control binding at 10 µM [6, 9]: 83%
percent of control binding at 10 µM [7, 9]: 100%
SMILES: O=C(c1cc(Cc2n[nH]c(=O)c3ccccc23)ccc1F)N1CCN(C(=O)C2CC2)CC1 [Olaparib]

percent of control binding at 10 µM [1, 10]: 65%
percent of control binding at 10 µM [2, 10]: 81%
percent of control binding at 10 µM [3, 10]: 91%
percent of control binding at 10 µM [4, 10]: 50%
percent of control binding at 10 µM [5, 10]: 80%
percent of control binding at 10 µM [6, 10]: 2%
percent of control binding at 10 µM [7, 10]: 87%
SMILES: CNCc1ccc(-c2[nH]c3cc(F)cc4c3c2CCNC4=O)cc1 [Rucaparib]

percent of control binding at 10 µM [1, 11]: 79%
percent of control binding at 10 µM [2, 11]: 85%
percent of control binding at 10 µM [3, 11]: 100%
percent of control binding at 10 µM [4, 11]: 100%
percent of control binding at 10 µM [5, 11]: 92%
percent of control binding at 10 µM [6, 11]: 77%
percent of control binding at 10 µM [7, 11]: 100%
SMILES: Cn1ncnc1[C@H]1c2n[nH]c(=O)c3cc(F)cc(c23)N[C@@H]1c1ccc(F)cc1 [Talazoparib]
